Among the test systems are DU-145; Hs-578T; MOLT-4; SN12C; K562; OVCAR-5; U-251; HCT-116; HCC 2998; MDA-MB-231; T47D; UO-31; PC-3; OVCAR-8; SR; SK-OV-3; HL-60; MCF7; NCI-H460.
Assay in all cases: NCI tumour cell line growth inhibition, 48 h

The record followed here is ChEMBL document CHEMBL1201862, “PubChem BioAssay data set” (2004).

SMILES strings stand for the structures.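 These data come from cells grown in 96-well plates and exposed to compound for 48 hours at five concentrations. GI50 is the concentration that inhibits growth by half.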 Activity calls are given as the source filed them. No stated cut-off is given here; in the data, active = GI50 up to about 1.1 µM and inactive = higher. Bounds are passed on as bounds.

For `CCc1c[n+]([O-])c(C)cc1[N+](=O)[O-]`, the GI50 was 28 µM (inactive) with DU-145; > 100 µM (inactive) in the assay with Hs-578T; > 100 µM (inactive) with MOLT-4; 53.7 µM (inactive) in the assay with SN12C; 48.6 µM (inactive) in the assay with K562; > 100 µM (inactive) in the assay on OVCAR-5. In addition, the GI50 in the assay on U-251 is 99.5 µM (inactive); with HCT-116 it was 26.3 µM (inactive); in the assay on HCC 2998, 24.3 µM (inactive); in the assay on MDA-MB-231 it was 22.8 µM (inactive); in the assay on T47D, > 100 µM (inactive); in the assay with UO-31, > 100 µM (inactive). For the same molecule, the GI50 with PC-3 was > 100 µM (inactive); in the assay on OVCAR-8, 46.2 µM (inactive); with SR, 33.6 µM (inactive); with SK-OV-3 it was > 100 µM (inactive); in the assay on HL-60, > 100 µM (inactive); in the assay on MCF7, 90.8 µM (inactive). Also, in the assay on NCI-H460, the GI50 was 20.7 µM (inactive).

As for `O=C1CC2C=CC(O)C(C1)C2` (centres undefined), the GI50 is > 100 µM (inactive) in the assay with DU-145; 21 µM (inactive) in the assay on Hs-578T; > 100 µM (inactive) in the assay on MOLT-4; > 100 µM (inactive) with SN12C; > 100 µM (inactive) with K562; > 100 µM (inactive) with OVCAR-5. Besides, the GI50 with U-251, in the assay with HCT-116, in the assay with HCC 2998, with MDA-MB-231, in the assay on T47D and with UO-31 was > 100 µM (inactive) throughout. Moreover, the GI50 is > 100 µM (inactive) in the assay with PC-3; > 100 µM (inactive) in the assay with OVCAR-8; < 0.01 µM (active) in the assay with SR; > 100 µM (inactive) with SK-OV-3; > 100 µM (inactive) in the assay with HL-60; > 100 µM (inactive) with MCF7. For the same molecule, in the assay with NCI-H460, the GI50 is > 100 µM (inactive).

As to `NC1=CN2c3ccccc3N(CC(=O)O)C2C=C1` (centres undefined), the GI50 in the assay with DU-145, with Hs-578T, in the assay with MOLT-4, with K562, with OVCAR-5 and in the assay with U-251 was > 100 µM (inactive) throughout. In addition, the GI50 in the assay with HCT-116, in the assay with HCC 2998, with MDA-MB-231, with T47D, in the assay on UO-31 and with PC-3 was > 100 µM (inactive) throughout. Besides, the GI50 in the assay on OVCAR-8, in the assay with SR, in the assay with SK-OV-3, in the assay on HL-60, in the assay with MCF7 and in the assay with NCI-H460 was > 100 µM (inactive) each time.

On to `CN1CCc2ccccc2C1Cc1ccccc1NC(=O)c1sc2ccccc2c1Cl` (centres undefined), for which the GI50 in the assay on DU-145, in the assay on Hs-578T, with MOLT-4, in the assay on SN12C, in the assay on K562 and in the assay with U-251 was > 100 µM (inactive) each time. Moreover, the GI50 in the assay with HCT-116, with HCC 2998, with MDA-MB-231, in the assay on T47D, in the assay with UO-31 and in the assay on PC-3 was > 100 µM (inactive) in each case. In addition, the GI50 with OVCAR-8 was > 100 µM (inactive); in the assay with SR, > 100 µM (inactive); with SK-OV-3, > 100 µM (inactive); in the assay on HL-60, 42.3 µM (inactive); in the assay with MCF7 it was > 100 µM (inactive); with NCI-H460, > 100 µM (inactive).
